Tests used:
[1] = biological target: Glyceraldehyde-3-phosphate dehydrogenase (Homo sapiens, UniProt P04406); experiment: Binding affinity to GAPDH in human erythrocytes; format: cell-based
[2] = biological target: Glyceraldehyde-3-phosphate dehydrogenase (Oryctolagus cuniculus, UniProt P46406); experiment: Binding affinity to GAPDH in rabbit muscle
Glyceraldehyde-3-phosphate dehydrogenase (Oryctolagus cuniculus, UniProt P46406), sequence (P46406 whole entry): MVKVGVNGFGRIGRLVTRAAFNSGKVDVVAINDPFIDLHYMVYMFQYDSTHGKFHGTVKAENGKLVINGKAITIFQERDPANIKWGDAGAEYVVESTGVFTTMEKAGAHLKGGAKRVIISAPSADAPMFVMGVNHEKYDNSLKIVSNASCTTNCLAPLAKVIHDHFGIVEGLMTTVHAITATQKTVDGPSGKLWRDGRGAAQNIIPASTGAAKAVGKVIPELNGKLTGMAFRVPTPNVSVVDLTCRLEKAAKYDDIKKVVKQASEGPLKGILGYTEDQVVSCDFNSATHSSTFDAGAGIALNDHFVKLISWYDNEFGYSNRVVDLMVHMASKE

Glyceraldehyde-3-phosphate dehydrogenase (Homo sapiens, UniProt P04406), sequence (P04406 whole entry): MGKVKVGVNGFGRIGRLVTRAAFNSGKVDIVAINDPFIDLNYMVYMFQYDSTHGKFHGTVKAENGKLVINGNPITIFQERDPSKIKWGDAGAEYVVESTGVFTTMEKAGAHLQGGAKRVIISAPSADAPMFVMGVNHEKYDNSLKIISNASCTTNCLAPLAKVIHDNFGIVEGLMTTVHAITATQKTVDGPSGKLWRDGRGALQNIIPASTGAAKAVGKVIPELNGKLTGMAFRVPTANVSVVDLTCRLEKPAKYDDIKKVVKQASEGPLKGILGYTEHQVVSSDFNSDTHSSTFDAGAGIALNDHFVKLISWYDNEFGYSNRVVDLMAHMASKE

Row | Kd [1] [µM] | IC50 [2] [µM] | Compound
1 | 7.5 | – | CC(C)=CCc1cccc2c(C3=C(O)C(=O)C(c4c(C)[nH]c5ccc(NC(=O)CCCCCNC(=O)CCCCC6SCC7NC(=O)NC76)cc45)=C(O)C3=O)c[nH]c12 (stereo not drawn)
2 | 7.2 | 15 | C=CC(C)(C)c1[nH]c2ccccc2c1C1=C(O)C(O)=C(c2c[nH]c3c(CC=C(C)C)cccc23)C(=O)C1=O

Reference: ChEMBL document CHEMBL1146212, “Glyceraldehyde 3-phosphate dehydrogenase is a cellular target of the insulin mimic demethylasterriquinone B1” (J Med Chem, 2007)
